# Results from US5010005A, “Bio-oxidation of high alcohols in non-aqueous reaction media” (priority 1989, dated 1991).
# Read-outs that look alike come from different tables or passages of the source.
# Experiments:
# [1] = Partitioning of benzyl alcohol and benzaldehyde between 0.1 M phosphate buffer and solvent; type: physicochemical
# Protocol: The partitioning of benzyl alcohol and benzaldehyde between 0.1 M phosphate buffer and each solvent used were measured as follows: benzyl alcohol (10 g/L) and benzaldehyde (10 g/L) were dissolved in each of the solvents of interest. Ten millilitres of each solvent were then dispensed into a test tube containing 10 ml of 0.1 M phosphate buffer (pH 8). The tubes were capped, vortexed, and the mixture was allowed to equilibrate for 1 hr at 30° C. Both phases were then assayed for benzaldehyde and benzyl alcohol as described above. […]
# alcohol oxidase = target: T1, alcohol oxidase (Komagataella phaffii, UniProt P04842); assay: Inhibition of alcohol oxidase by benzaldehyde; type: biochemical, Pichia pastoris
# T1 construct: purchased Provesta Corp. (Bartlesville, Oklahoma)
# T1 sequence (P04842 2-663 limits assumed): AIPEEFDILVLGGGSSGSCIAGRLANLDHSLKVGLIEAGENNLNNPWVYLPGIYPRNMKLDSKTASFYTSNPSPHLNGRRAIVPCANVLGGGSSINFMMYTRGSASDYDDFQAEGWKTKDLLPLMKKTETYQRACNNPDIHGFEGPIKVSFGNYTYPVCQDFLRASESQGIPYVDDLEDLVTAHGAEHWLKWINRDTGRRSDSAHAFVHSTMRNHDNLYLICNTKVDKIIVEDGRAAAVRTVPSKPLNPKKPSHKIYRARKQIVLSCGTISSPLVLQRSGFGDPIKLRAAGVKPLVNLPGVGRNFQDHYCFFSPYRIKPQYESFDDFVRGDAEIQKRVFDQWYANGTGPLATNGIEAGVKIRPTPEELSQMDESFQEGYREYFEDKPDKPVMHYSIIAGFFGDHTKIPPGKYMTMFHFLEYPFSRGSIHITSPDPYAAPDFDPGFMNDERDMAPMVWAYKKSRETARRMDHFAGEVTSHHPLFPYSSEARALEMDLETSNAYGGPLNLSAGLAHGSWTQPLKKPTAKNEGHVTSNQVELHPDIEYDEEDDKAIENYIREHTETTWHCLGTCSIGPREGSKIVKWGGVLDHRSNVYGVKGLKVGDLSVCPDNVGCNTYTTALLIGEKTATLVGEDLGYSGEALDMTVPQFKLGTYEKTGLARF
# Text: Similar potent inhibition of yeast alcohol dehydrogenase by aliphatic and aromatic aldehydes including benzaldehyde has been reported (W.R. Bowen et al, J. Chem. Tech. Biotechnol. 36: 191-196, 1986). In two phase systems, the degree to which alcohol oxidase is inhibited by benzaldehyde is controlled by the concentration of the inhibitor, the concentration of the enzyme, the solvent chosen as a reaction fluid, and on the volumetric ratio of the two phases present. The effect of the first two factors is obvious, however the latter two parameters play an important role in determining the effective concentration of the inhibitor; that concentration to which the biocatalyst is exposed, potentially causing inhibition. Benzaldehyde partitions differently between the two phases depending on the solvent chosen. For example, using toluene as an extractant benzaldehyde was efficiently stripped from the aqueous phase (Table 2) and was, therefore, less able to inhibit alcohol oxidase. It is possible that this would result in improved yields over extended reaction times, despite the sacrifice in terms of initial reaction rate.
# Solubility in water = type: physicochemical
smiles,measurement,setting,value
O=Cc1ccccc1 [benzaldehyde],Partition Coefficient (Corg /Caq),"[1]; Ether / 0.1 M phosphate buffer pH 8, 30° C.",69.4
same,Partition Coefficient (Corg /Caq),"[1]; Ethylacetate / 0.1 M phosphate buffer pH 8, 30° C.",62.0
same,Partition Coefficient (Corg /Caq),"[1]; Hexane / 0.1 M phosphate buffer pH 8, 30° C.",15.4
same,Partition Coefficient (Corg /Caq),"[1]; Toluene / 0.1 M phosphate buffer pH 8, 30° C.",100
same,Inhibition of alcohol oxidase,alcohol oxidase,very strongly inhibited
same,Inhibition of alcohol oxidase,alcohol oxidase; listed as Benzaldehyde,extremely potent inhibitor
same,solubility,Solubility in water,~3 mg/mL
